Literature values in US20160000720A1, “Pharmaceutical compositions comprising Tadalafil” (AUROBINDO PHARMA LIMITED, priority 2013, published 2016).

solubility in water (in words): practically insoluble in water
soluble in water in a concentration up to (according to WO 01/08687): up to 2 μg/ml
SMILES: CN1CC(=O)N2[C@H](c3ccc4c(c3)OCO4)c3[nH]c4ccccc4c3C[C@@H]2C1=O [Tadalafil, (6R,12aR)-6-(1,3-benzodioxol-5-yl)-2,3,6,7,12,12a hexa hydro-2-methylpyrazino[1′,2′:1,6]pyrido[3,4-b]indole-1,4-dione]
